Results from the NIST ThermoML archive (doi:10.1021/je101232g).

Conditions: Liquid

CCCCCCCCCCCCCC[P+](CCCCCC)(CCCCCC)CCCCCC.[Cl-] [trihexyl(tetradecyl)phosphonium chloride]
mass density [kg/m3]
Conditions	283.15 K	293.15 K	303.15 K	313.15 K	323.15 K	333.15 K
100 kPa	898.4	892.4	886.5	880.6	874.8	868.9
1000 kPa	898.8	892.9	887	881.1	875.3	869.4
2000 kPa	899.3	893.4	887.5	881.7	875.8	870
3000 kPa	899.8	893.9	888	882.2	876.4	870.6
4000 kPa	900.3	894.4	888.5	882.7	876.9	871.1
5000 kPa	900.7	894.9	889.1	883.3	877.6	871.8
10000 kPa	903.1	897.3	891.5	885.9	880.2	874.5
15000 kPa	905.3	899.6	894	888.4	882.8	877.3
20000 kPa	907.5	901.8	896.3	890.8	885.3	879.9
25000 kPa	909.6	904	898.6	893.2	887.8	882.5
30000 kPa	911.7	906.3	900.8	895.5	890.1	884.9
35000 kPa	913.7	908.3	903	897.7	892.6	887.3
40000 kPa	915.7	910.3	905.1	899.9	894.8	889.6
45000 kPa	917.6	912.4	907.2	902.1	897	892

CCCCCCCCCCCCCC[P+](CCCCCC)(CCCCCC)CCCCCC.CS(=O)(=O)[O-] [trihexyltetradecylphosphonium methanesulfonate]
mass density [kg/m3]
Conditions	283.15 K	293.15 K	303.15 K	313.15 K	323.15 K	333.15 K
100 kPa	938	931.8	925.7	919.6	913.4	907.4
1000 kPa	938.4	932.3	926.2	920.1	914	908.1
2000 kPa	938.9	932.8	926.7	920.7	914.6	908.7
3000 kPa	939.5	933.4	927.3	921.3	915.3	909.3
4000 kPa	940.1	933.9	927.9	921.9	915.9	910
5000 kPa	940.5	934.4	928.4	922.5	916.6	910.6
10000 kPa	943.1	937.1	931.3	925.3	919.5	913.7
15000 kPa	945.6	939.7	934	928.1	922.3	916.7
20000 kPa	948	942.2	936.6	930.8	925.2	919.6
25000 kPa	950.3	944.6	939	933.5	927.9	922.3
30000 kPa	952.7	947.1	941.5	935.9	930.5	925
35000 kPa	954.9	949.4	943.8	938.4	933.1	927.7
40000 kPa	957.1	951.6	946.2	940.8	935.5	930.2
45000 kPa	959.3	953.9	948.5	943.3	938.1	932.7

CCCCCCCCCCCCCC[P+](CCCCCC)(CCCCCC)CCCCCC.O=S(=O)([N-]S(=O)(=O)C(F)(F)F)C(F)(F)F
mass density [kg/m3]
Conditions	283.15 K	293.15 K	303.15 K	313.15 K	323.15 K	333.15 K
100 kPa	1077.4	1070	1062.7	1055.4	1048	1040.8
1000 kPa	1077.9	1070.5	1063.3	1056	1048.7	1041.5
2000 kPa	1078.4	1071.2	1063.9	1056.7	1049.3	1042.2
3000 kPa	1079	1071.8	1064.5	1057.3	1050.1	1042.9
4000 kPa	1079.6	1072.3	1065.2	1057.9	1050.7	1043.6
5000 kPa	1080.2	1072.9	1065.8	1058.6	1051.4	1044.4
10000 kPa	1083	1075.9	1068.8	1061.7	1054.7	1047.8
15000 kPa	1085.6	1078.6	1071.8	1064.9	1057.9	1051.2
20000 kPa	1088.3	1081.4	1074.7	1067.8	1061	1054.3
25000 kPa	1090.8	1084	1077.4	1070.7	1064	1057.4
30000 kPa	1093.3	1086.6	1080.1	1073.5	1066.9	1060.4
35000 kPa	1095.6	1089.1	1082.7	1076.2	1069.8	1063.3
40000 kPa	1097.9	1091.5	1085.1	1078.8	1072.4	1066.2
45000 kPa	1100.2	1093.9	1087.7	1081.3	1075.1	1068.9

CCCCCCCCCCCCCC[P+](CCCCCC)(CCCCCC)CCCCCC.[Br-] [tetradecyltrihexylphosphonium bromide]
mass density [kg/m3]
Conditions	283.15 K	293.15 K	303.15 K	313.15 K	323.15 K	333.15 K
100 kPa	962.7	956.5	950.3	944.1	937.8	931.7
1000 kPa	963.2	957.1	950.9	944.6	938.4	932.3
2000 kPa	963.7	957.6	951.4	945.3	939	933
3000 kPa	964.2	958.1	952	945.8	939.7	933.6
4000 kPa	964.8	958.7	952.6	946.4	940.3	934.2
5000 kPa	965.3	959.2	953.1	947	941	934.9
10000 kPa	967.9	961.9	955.9	949.8	943.9	938
15000 kPa	970.3	964.5	958.6	952.7	946.8	941
20000 kPa	972.8	967	961.2	955.4	949.7	943.9
25000 kPa	975.3	969.3	963.8	958	952.4	946.8
30000 kPa	977.6	971.8	966.3	960.6	955.1	949.6
35000 kPa	979.8	974.2	968.7	963.2	957.7	952.3
40000 kPa	982	976.5	971	965.5	960.2	954.9
45000 kPa	984.2	978.8	973.4	967.9	962.7	957.3
